Values quoted from earlier work, collected in patent US20060009642A1, “Methods for the synthesis of substituted purines” (IRM LLC, a Delaware Limited Liability Company, priority 2001, published 2006).

System: cyclin-dependent kinase 1 (CDK1)
Details: binds to the ATP-binding site; Arris et al., J. Med. Chem. 43, 2797 (2000)

## Nc1nc(OCC2CCCCC2)c2[nH]cnc2n1 [O6-cyclohexylmethylguanine]
  inhibition of CDK1, mode of inhibition: competitive inhibitor
